Experimental data from the NIST ThermoML archive (doi:10.1016/j.jct.2008.10.007).

Key:
[1] = 298.15 K; 101 kPa; Liquid; Vibrating tube method
[2] = xn = mol fraction of the nth substance listed; conditions: 298.15 K, 101 kPa, Liquid, Vibrating tube method
[3] = excess molar enthalpy (molar enthalpy of mixing); xn = mol fraction of the nth substance listed; conditions: 298.15 K, 101 kPa, Liquid, Calvet calorimetry

CCCOC(=O)CC [propyl propanoate]
Conditions	mass density [kg/m3]
[1]	875.61

CCCOC=O [propyl methanoate] + ClCCCCl
Conditions	excess molar enthalpy [kcal/mol]	mass density [kg/m3]
[2], x1 = 0.0604	–	1161.58
[2], x1 = 0.1163	–	1145.6
[2], x1 = 0.1772	–	1128.25
[2], x1 = 0.2336	–	1112.22
[2], x1 = 0.2937	–	1095.19
[2], x1 = 0.3531	–	1078.45
[2], x1 = 0.4676	–	1046.35
[2], x1 = 0.5255	–	1030.24
[2], x1 = 0.5854	–	1013.57
[2], x1 = 0.6437	–	997.42
[2], x1 = 0.7051	–	980.49
[2], x1 = 0.7636	–	964.45
[2], x1 = 0.8238	–	947.98
[2], x1 = 0.8823	–	932.02
[2], x1 = 1	–	899.81
[3], x1 = 0.065	-0.00359	–
[3], x1 = 0.1452	-0.00741	–
[3], x1 = 0.2308	-0.0129	–
[3], x1 = 0.3182	-0.0189	–
[3], x1 = 0.3939	-0.0237	–
[3], x1 = 0.4578	-0.0251	–
[3], x1 = 0.5145	-0.0272	–
[3], x1 = 0.5379	-0.027	–
[3], x1 = 0.5862	-0.0268	–
[3], x1 = 0.6669	-0.0246	–
[3], x1 = 0.7509	-0.021	–
[3], x1 = 0.8484	-0.0148	–
[3], x1 = 0.9347	-0.00765	–

ClCCCCCCCl [1,6-dichlorohexane] + CCCOC(=O)CC
Conditions	excess molar enthalpy [kcal/mol]	mass density [kg/m3]
[2], x2 = 0.0665	–	1052.5
[2], x2 = 0.1321	–	1041.17
[2], x2 = 0.1948	–	1030.19
[2], x2 = 0.2568	–	1019.24
[2], x2 = 0.3171	–	1008.42
[2], x2 = 0.3785	–	997.31
[2], x2 = 0.556	–	964.22
[2], x2 = 0.7294	–	930.71
[2], x2 = 0.7852	–	919.58
[2], x2 = 0.8399	–	908.58
[2], x2 = 0.8955	–	897.26
[2], x2 = 0.949	–	886.33
[3], x2 = 0.0728	-0.00598	–
[3], x2 = 0.1664	-0.0131	–
[3], x2 = 0.2656	-0.0232	–
[3], x2 = 0.3635	-0.0354	–
[3], x2 = 0.4374	-0.0418	–
[3], x2 = 0.4861	-0.0459	–
[3], x2 = 0.5174	-0.0483	–
[3], x2 = 0.5675	-0.0495	–
[3], x2 = 0.6298	-0.0483	–
[3], x2 = 0.7081	-0.043	–
[3], x2 = 0.7895	-0.0373	–
[3], x2 = 0.8738	-0.0237	–
[3], x2 = 0.9478	-0.011	–

ClCCCCl [1,3-dichloropropane] + CCCOC(C)=O
Conditions	excess molar enthalpy [kcal/mol]	mass density [kg/m3]
[2], x2 = 0.051	–	1160.75
[2], x2 = 0.1013	–	1143.09
[2], x2 = 0.1519	–	1125.74
[2], x2 = 0.2062	–	1107.55
[2], x2 = 0.2602	–	1089.75
[2], x2 = 0.314	–	1072.51
[2], x2 = 0.4262	–	1037.75
[2], x2 = 0.5391	–	1004.31
[2], x2 = 0.5986	–	987.32
[2], x2 = 0.6602	–	970.1
[2], x2 = 0.7227	–	953.06
[2], x2 = 0.758	–	943.63
[2], x2 = 0.7981	–	933.1
[2], x2 = 0.8553	–	918.23
[2], x2 = 0.934	–	898.35
[3], x2 = 0.054	-0.00908	–
[3], x2 = 0.1279	-0.0206	–
[3], x2 = 0.2091	-0.0349	–
[3], x2 = 0.2781	-0.049	–
[3], x2 = 0.3637	-0.0624	–
[3], x2 = 0.4401	-0.0741	–
[3], x2 = 0.5067	-0.0813	–
[3], x2 = 0.5223	-0.0829	–
[3], x2 = 0.572	-0.0837	–
[3], x2 = 0.6457	-0.0779	–
[3], x2 = 0.738	-0.0679	–
[3], x2 = 0.8364	-0.0488	–
[3], x2 = 0.931	-0.0237	–

ClCCCCCCl [1,5-dichloropentane] + CCCOC(=O)CC
Conditions	excess molar enthalpy [kcal/mol]	mass density [kg/m3]
[2], x2 = 0.0586	–	1081.99
[2], x2 = 0.1204	–	1068.2
[2], x2 = 0.1736	–	1056.39
[2], x2 = 0.2854	–	1031.55
[2], x2 = 0.3403	–	1019.42
[2], x2 = 0.4006	–	1006.12
[2], x2 = 0.5242	–	978.97
[2], x2 = 0.635	–	954.74
[2], x2 = 0.6961	–	941.43
[2], x2 = 0.7548	–	928.67
[2], x2 = 0.8219	–	914.07
[2], x2 = 0.8809	–	901.3
[2], x2 = 0.942	–	888.12
[3], x2 = 0.0588	-0.00406	–
[3], x2 = 0.1375	-0.0136	–
[3], x2 = 0.2257	-0.0241	–
[3], x2 = 0.3118	-0.0375	–
[3], x2 = 0.3922	-0.0495	–
[3], x2 = 0.4517	-0.0576	–
[3], x2 = 0.4693	-0.059	–
[3], x2 = 0.5239	-0.0609	–
[3], x2 = 0.5982	-0.0588	–
[3], x2 = 0.6783	-0.0526	–
[3], x2 = 0.7663	-0.0425	–
[3], x2 = 0.855	-0.0287	–
[3], x2 = 0.9359	-0.0146	–

CCCOC(C)=O [propyl ethanoate]
Conditions	mass density [kg/m3]
[1]	882.08

CCCOC=O [propyl methanoate]
Conditions	mass density [kg/m3]
[1]	899.81

CCCOC(=O)CCC [propyl butanoate]
Conditions	mass density [kg/m3]
[1]	867.9
